Results on six compounds are retold here after PMC10714334, “Developing multispecies quorum-sensing modulators based on the Streptococcus mitis competence-stimulating peptide” (The Journal of Biological Chemistry, 2023).

The test system of data set [1] is defibrinated rabbit red blood cells. Nature of the data set: hemolysis assay. The class given is cell-based. The note with it: mean ± S.D., SD. On the procedure: A single colony of S. mitis ATCC 49456 was grown for 16 h at 37 °C with 5% CO2 in 5 mL THY media (pH 7.3). Overnight cultures were then diluted 1:10 in fresh THY media. Samples were prepared in clear bottom 96 -well microtiter plates. Experimental samples were prepared by adding 196 µL of the 1:10 diluted culture and 2 µL of a 1 mM S. mitis-CSP-2 and the lead S. mitis-CSP-2 analogs (lead activator, S. mitis-CSP-2-n11, and lead inhibitor, S. mitis-CSP-2-E1Af10r16), or 196 µL of fresh THY media and 2 µL of a 1 mM S. mitis-CSP-2/ S. mitis-CSP-2 analog stock.
Two µL of DMSO was added to each well. A positive control was prepared by adding 2 µL of a 1% Triton X solution and 2 µL of DMSO in 196 µL THY media, and negative controls were prepared by adding 4 µL DMSO in either 196 µL 1:10 diluted culture or 196 µL THY media. The 96-well microtiter plate was then incubated for 2 h at 37 °C with 5% CO 2, after which the optical density at 600 nm (OD600) was recorded and hemolysis was assessed. A 1 mL portion of defibrinated rabbit red blood cells ( VWR International) was aliquoted into a sterile 1.5 mL microcentrifuge tube, and centrifuged at 2,000 rpm for 2 min. Following centrifugation, the top layer was aliquoted off, and red blood cells were gently washed with sterile1 mL 1X PBS. This process was repeated for a total of three times, until following centrifugation the top layer was mostly clear. Washed red blood cells were resuspended in sterile 1 mL 1X PBS solution, and a 15 µL aliquot was added to each well of the 96 -well microtiter plate. The plate was then incubated for 30 min at 37 °C. Following incubation, the plate was centrifuged for 4 min at 4 °C at 1600 rpm .
Experimental wells were then diluted 1:5 in distilled water to prevent saturation of the detector by the positive control. The absorbance at 420 nm (OD420) was then measured for each well.
Experiments were performed in triplicate on three separate days. Data are presented as the percent hemolysis relative to the .01% Triton X positive control. Results are expressed as the mean +/ - the standard deviation of three independent experiments. […]

A further data set concerns the target S. mitis ComD-2 receptor. Nature of the data set: luminescence reporter competitive inhibition assay (comX expression). The class given is cell-based, Streptococcus mitis. To be noted: for IC50: same reporter strain, competition against 1 μM native S. mitis-CSP-2, 30 min at 37 °C, triplicate on three separate days. How it is done: As a positive control, 2 μl of S. mitis-CSP-2 and 2 μl of DMSO were added to the same well in triplicate. As a negative control, 4 μl of DMSO was added in triplicate. Then, 2 μl of 15 mg/ml D-luciferin in distilled water was added to each experimental or control well, after which 194 μl of bacteria was added, and the plate was incubated for 30 min at 37 °C. Following incubation, the A600 and luminescence of each experimental well were measured. Results were reported as percent activation, which is the ratio between the luminescence (presented as relative luminescence units, RLU/A600) of the analog and that of the positive control. […] GraphPad Prism was used to calculate the IC50 values, which are the concentration of inhibitor where the response (or binding) is reduced by half. Experiments were performed in triplicate on three separate days.
Antagonism assays were performed at 10 μM concentration of peptides against 1 µM concentration of S. mitis-CSP-2. S. mitis-CSP-2 (1 µM) was used as the positive control (100%) while DMSO as the negative control (0%). For all figures, comX expression is presented as relative luminescence units (RLU) divided by measured cultural optical density (OD). Percent (%) ComD activation was measured by normalizing the RLU/OD value obtained for each peptide to that of the native S. mitis-CSP-2. The results are averages from three replicates and representative of three independent experiments. Error bars represent the standard error of the mean of nine values.
Figure S-8. Primary antagonism screening assay data for t he S. mitis-CSP-2 alanine scan and D-amino acid […]
determine its IC50 value.
Figure S-9. Primary antagonism screening assay data for t he S. mitis-CSP-2 truncated analogs . S. mitis- […]

Data set [2] has as its system pneumococcus ComD1 receptor. To be noted: cited from earlier work. The text has this: (§1) Table 5 EC50 or IC50 values of select Streptococcus mitis-CSP-2–based pneumococcal QS modulators against the pneumococcus ComD1 and ComD2 and the S. mitis ComD-2 receptors ^a | column: Streptococcus pneumoniae ^b / ComD1 / EC50 or IC50∗ (nM) || In our previous work, we utilized the S. mitis-CSP-2 scaffold to develop analogs capable of modulating the two pneumococcal ComD receptors at low nanomolar concentrations ([2]). We wanted to evaluate whether the optimization of the S. mitis-CSP-2 scaffold to the pneumococcus ComD receptors affected the ability of the modified analogs to interact with the S. mitis ComD-2 receptor.

For data set [3], the system named is pneumococcus ComD2 receptor. The note with it: cited from earlier work.
Excerpt: as §1, with “/ ComD2” for “/ ComD1”

Setting [4] is: peptide alone with S. mitis ATCC 49456 culture.

Non-standard residues stand in square brackets, D forms with d. Residues, ends and D or L forms follow the SMILES beside them. No end group written: not given here.

On to “EIRQTHNIFFNFFKRR [S. mitis-CSP-2, reference compound]”, for which the “hemolysis relative to Triton X positive control” value in data set [1] (setting [4]) is given as -9.6% ±24%. Consider `CC(C)(C)CC(C)(C)c1ccc(OCCO)cc1` [Triton X, reference compound], for which the “hemolysis, positive control” value in data set [1] (0.01% Triton X in THY media) is 100% ± 15%. On to `CC[C@H](C)[C@H](NC(=O)[C@H](CC(N)=O)NC(=O)[C@H](Cc1c[nH]cn1)NC(=O)[C@@H](NC(=O)[C@H](CCC(N)=O)NC(=O)[C@H](CCCNC(=N)N)NC(=O)[C@@H](NC(=O)[C@@H](N)CCC(=O)O)[C@@H](C)CC)[C@@H](C)O)C(=O)N[C@@H](Cc1ccccc1)C(=O)N[C@@H](Cc1ccccc1)C(=O)N[C@H](CC(N)=O)C(=O)N[C@@H](Cc1ccccc1)C(=O)N[C@@H](Cc1ccccc1)C(=O)N[C@@H](CCCCN)C(=O)N[C@@H](CCCNC(=N)N)C(=O)N[C@@H](CCCNC(=N)N)C(=O)O` [S. mitis-CSP-2-n11] (H-EIRQTHNIFF[dN]FFKRR-OH), for which the “hemolysis relative to Triton X positive control” value in data set [1] (setting [4]) is -9.8% ±30%. As usually defined, the IC50 is the midpoint of a concentration-inhibition curve. Lower therefore signals greater potency. In the case of “AIRQTHNIFFFLFKRR [S. mitis-CSP-2-E1AN11FF12L]”, the IC50 on S. mitis ComD-2 receptor was > 1000 nM. In addition, in data set [2], the “inhibitory activity against S. pneumoniae ComD1 receptor” value is “no inhibitory activity”. Besides, the “inhibitory activity against S. pneumoniae ComD2 receptor” value in data set [3] is reported as “no inhibitory activity”.

For the compound IRQTHNIFFNFFKRR [S. mitis-CSP-2-des-E1], in the data set on S. mitis ComD-2 receptor (10 μM peptide against 1 µM S. mitis-CSP-2 (100%), DMSO 0%), the “% ComD activation, primary antagonism screening” value was “less than 50%”. In addition, the IC50 on S. mitis ComD-2 receptor was > 1000 nM. Regarding `CC[C@H](C)[C@H](NC(=O)[C@H](C)N)C(=O)N[C@@H](CCCNC(=N)N)C(=O)N[C@@H](CCC(N)=O)C(=O)N[C@H](C(=O)N[C@@H](Cc1c[nH]cn1)C(=O)N[C@@H](CC(N)=O)C(=O)N[C@H](C(=O)N[C@@H](Cc1ccccc1)C(=O)N[C@H](Cc1ccccc1)C(=O)N[C@@H](CC(N)=O)C(=O)N[C@@H](Cc1ccccc1)C(=O)N[C@@H](Cc1ccccc1)C(=O)N[C@@H](CCCCN)C(=O)N[C@@H](CCCNC(=N)N)C(=O)N[C@H](CCCNC(=N)N)C(=O)O)[C@@H](C)CC)[C@@H](C)O` [S. mitis-CSP-2-E1Af10r16] (H-AIRQTHNIF[dF]NFFKR[dR]-OH), the “hemolysis relative to Triton X positive control” value was -3.1% ±16% in data set [1] (inhibitor together with S. mitis-CSP-2, with S. mitis ATCC 49456 culture); -2.3% ±7.0% in data set [1] (inhibitor together with S. mitis-CSP-2 in THY media); -6.9% ±19% in data set [1] (setting [4]).
